Where two headings read alike, the source gives them in different places.
Assays:
[1] = cited from earlier work
[2] = partly stated as estimated; cited from earlier work
[3] = Liposome leakage, sedimentation method; assay type: physicochemical
Method: Liposome Leakage, Sedimentation Method. Liposome samples were diluted to 3-5 mL and left on an orbital shaker at 22° C. At specific time points, the liposomes were sedimented in a centrifuge at 300×g for 5 minutes and an aliquot of the clear supernatant was analyzed spectrophotometrically for drug and loading base content. After measurement, the solution was returned to the liposome suspension, which was vortexed and returned to the orbital shaker.
Then, 400 microliters of a pyridinium salt solution (prewarmed to 58° C.) were added to the lipid suspension. The mixture was kept at 58° C. for 5 minutes and then 100 microliters of the pyridinium salt solution were added. […] A total of three washes were performed. […] The samples were subsequently monitored for release of naltrexone using the sedimentation method. Two trials were performed for each condition.

[4] = Leakage of drug from loaded liposomes, Examples 5 to 8 (method not named); conditions: for leakage of chloroquine from liposomes loaded using this base, compared among three loading bases: adenine triflate, aniline triflate, pyridinium sulfate
[5] = cited from earlier work; remark: listed apart in the source
[6] = Liposome leakage, dialysis method; conditions: for pyridine leakage from the liposomes: slower after 3 days
Method: A 0.5-mL aliquot of liposome suspension was placed in a section of dialysis tubing tied at one end. The tubing was tied at the other end to form a sealed bag. The bag was placed in 4.5 mL of isotonic NaCl saline solution and placed on an orbital shaker. At specific time points, the dialysis bags were exchanged into fresh isotonic NaCl and the drug and loading base were quantified spectophotometrically in the external dialysis solutions.

[7] = administered orally; cited from earlier work
[8] = cited from earlier work; remark: listed apart in the source
[9] = 1.5 M pyridinium sulfate liposomes
[10] = liposomes loaded with this pyridinium salt

COc1ccccn1 [2-methoxypyridine]
solubility in water [1]: limited solubility in water | log P [2]: approximately 1.3

C1=Cc2cccc(OC[C@H]3CNCCO3)c2C1.O=S(=O)(O)c1ccccc1 [Benzenesulfonate]
naltrexone release rate compared with sulfate and eprodisate salts [3]: higher release rates

Cl.c1ccncc1 [Chloride, pyridinium chloride]
release of naltrexone in about 300 hours [3]: 20%

CCC(C)O (stereo not drawn) [Example 2-butanol, 2-butanol]
log P [2]: 0.683

O=[N+]([O-])O [Nitrate]
release of naltrexone in 500 hours [3]: over 70% | release of naltrexone in 860 hours [3]: 90%

Nc1ncnc2nc[nH]c12 [adenine, 6-aminopurine]
solubility in water [1]: very limited solubility in water | leakage of chloroquine from liposomes loaded using this base, compared among three loading bases [4]: least rapid | pKa [5]: 4.15

N [ammonia, reference compound]
log P [2]: approximately −0.3

Nc1ccccc1 [aniline]
leakage of chloroquine from liposomes loaded using this base, compared among three loading bases [4]: most rapid

CCN(CC)CCCC(C)Nc1ccnc2cc(Cl)ccc12 (stereo not drawn) [chloroquine, reference compound]
leakage after 400 hours ([4]; DPPC:cholesterol liposomes loaded with a sulfate salt of pyridine): 4-8% | leakage after 400 hours ([4]; loaded with the eprodisate salts of both pyridine and 2-methoxypyridine): ≤ 1% | leakage of loaded drug in the first 24 hours ([6]; 0.133 M ammonium sulfate gradient liposomes (comparison)): 18%

O=C1CC[C@@]2(O)[C@H]3Cc4ccc(O)c5c4[C@@]2(CCN3CC2CC2)[C@H]1O5 [naltrexone, reference compound]
initial release at 24 hours [3, 9]: approximately 4% | liposome contents released in 672 hours [3, 9]: 20% | release rate ([3]; 1.5 M pyridinium sulfate liposomes, over 672 hours): less than 1 % per day | log P [2]: 1.3 | pKa [5]: 7.3

NC(=O)c1cccnc1 [nicotinamide]
concentration of solutions of the salt with most strong acids (as concentrated as) ([1]; pH 2-3 and room temperature): ≤ 4 M | oral dose with no toxic effects (as high as) [7]: ≤ 3 gm/day | pKa [5]: 3.25

CN1CC[C@]23c4c5ccc(O)c4O[C@H]2C(=O)CC[C@@]3(O)[C@H]1C5 [oxymorphone]
release time ([8]; animal studies, egg phosphatidylcholine and cholesterol vesicles): approximately 24 hours | release time ([8]; dipalmitoylphosphatidylcholine and cholesterol vesicles): approximately 72 hours

c1ccnnc1 [pyridazine]
solubility in water [1]: miscible with water at all ratios | log P [2]: approximately −0.7

c1ccncc1 [pyridine]
pyridine leakage from the liposomes ([6]; 0.5 M pyridinium sulfate liposomes loaded with 2.5 or 5 μmol chloroquine): initially very rapid | pyridine loss from liposomes ([6]; 0.5 M pyridinium sulfate liposomes loaded with 10 or 20 μmol chloroquine): minimal | pyridine leakage from the liposomes ([6]; 1 M pyridinium chloride liposomes loaded with 2.5 or 5 μmol chloroquine): initially very rapid | pyridine loss from liposomes ([6]; 1 M pyridinium chloride liposomes loaded with 10 or 20 μmol chloroquine): minimal

O=S(=O)(O)CCCS(=O)(=O)O.c1ccncc1.c1ccncc1 [pyridinium eprodisate]
release of naltrexone in 900 hours [3, 10]: ~5%

Methanesulfonate
naltrexone release rate compared with sulfate and eprodisate salts [3, 10]: higher release rates
